≈ marks a conversion by molar mass, not a printed value.
What was measured:
[1] = Kinetic solubility of compound at pH 7.4; type: physicochemical; conditions: buffer, read-out: Kinetic_solubility
[2] = Lipophilicity, logD of compound at pH 7.4; type: physicochemical; conditions: buffer
[3] = Inhibition of necroptosis in human HT-29 cells assessed as reduction in TNFalpha/BV6/zVAD-fmk-induced cell death incubated for 18 hrs by Cell Titer Glo luminescent cell viability assay; type: functional, cell-based; conditions: HT-29, 18 h
[4] = target: T1, Receptor-interacting serine/threonine-protein kinase 1 (Homo sapiens, UniProt Q13546); experiment: Inhibition of recombinant human His/GST-tagged RIPK1 (2 to 257 residues) expressed in insect expression system incubated for 2 hrs by fluorescence polarization assay; conditions: read-out: Ki(app)
T1 sequence (Q13546 whole entry): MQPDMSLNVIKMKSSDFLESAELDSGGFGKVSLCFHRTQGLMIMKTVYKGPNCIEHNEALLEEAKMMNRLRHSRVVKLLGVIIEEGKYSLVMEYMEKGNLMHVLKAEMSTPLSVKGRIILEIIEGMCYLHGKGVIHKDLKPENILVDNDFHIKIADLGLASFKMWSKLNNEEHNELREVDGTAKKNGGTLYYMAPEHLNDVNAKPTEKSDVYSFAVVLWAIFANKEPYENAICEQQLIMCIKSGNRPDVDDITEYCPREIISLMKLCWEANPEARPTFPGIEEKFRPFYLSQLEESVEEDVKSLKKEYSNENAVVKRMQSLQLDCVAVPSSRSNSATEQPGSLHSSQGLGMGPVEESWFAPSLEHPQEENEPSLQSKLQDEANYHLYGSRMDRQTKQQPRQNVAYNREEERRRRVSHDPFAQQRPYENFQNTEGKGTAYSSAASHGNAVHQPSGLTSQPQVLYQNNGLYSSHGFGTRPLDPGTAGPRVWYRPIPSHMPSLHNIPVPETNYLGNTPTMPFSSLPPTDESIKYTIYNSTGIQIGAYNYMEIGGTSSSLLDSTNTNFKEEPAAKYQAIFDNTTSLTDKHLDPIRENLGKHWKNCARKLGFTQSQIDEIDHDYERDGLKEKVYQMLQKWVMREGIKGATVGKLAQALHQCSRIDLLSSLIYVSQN

solubility kinetic [1] [µM]	logD [2]	Ki [4] [nM]	Structure (SMILES)	EC50 [3] [nM]
3.4 (≈ 1.29 µg/mL)	3.5	–	CC(C)c1cnc2[nH]nc(C(=O)N[C@H]3COc4ccccc4N(C)C3=O)c2c1	390
–	–	5	CN1C(=O)[C@@H](NC(=O)c2n[nH]c3ccc(C(F)(F)F)cc23)COc2ccccc21	28
–	–	42	CN1C(=O)[C@@H](NC(=O)c2n[nH]c3c2CC(C)(C)CC3)COc2ccccc21	170
160 (≈ 65 µg/mL)	1	–	CN1C(=O)[C@@H](NC(=O)c2nnc3ccc(C(F)(F)F)nn23)COc2ccccc21	2400
99 (≈ 40.5 µg/mL)	1.5	–	CN1C(=O)[C@@H](NC(=O)c2nnn3c2C[C@H](C(F)(F)F)CC3)COc2ccccc21	210
59 (≈ 23.9 µg/mL)	3.3	–	CN1C(=O)[C@@H](NC(=O)c2n[nH]c3ncc(C(F)(F)F)cc23)COc2ccccc21	580
–	–	7	CN1C(=O)[C@@H](NC(=O)c2n[nH]c3c2C[C@H](C(F)(F)F)CC3)COc2ccccc21	43
164 (≈ 74.8 µg/mL)	1.6	–	CN1C(=O)[C@@H](NC(=O)c2nnc3ccc(C(F)(F)C(F)(F)F)nn23)COc2ccccc21	130
–	–	5	CN1C(=O)[C@@H](NC(=O)c2ncn3ccc(C(F)(F)F)cc23)COc2ccccc21	12
–	–	63	CN1C(=O)[C@@H](NC(=O)c2nn(C)c3c2C[C@H](C(F)(F)F)CC3)COc2ccccc21	500

More lines, now with the values behind:

Structure (SMILES)	solubility kinetic [1] [µM]	logD [2]	Ki [4] [nM]	EC50 [3] [nM]
CN1C(=O)[C@@H](NC(=O)c2n[nH]c3c2CCC(C)(C)C3)COc2ccccc21	–	–	> 10000	> 20000
CN1C(=O)[C@@H](NC(=O)c2nnn3c2CC(C(F)(F)C(F)(F)F)CC3)COc2ccccc21 (mixture of isomers)	57.1	2	–	64
CN1C(=O)[C@@H](NC(=O)c2n[nH]c3c2CCC2(CC2)C3)COc2ccccc21	–	–	–	> 20000
CN1C(=O)[C@@H](NC(=O)c2n[nH]c3c2C[C@H](C(C)(C)C)CC3)COc2ccccc21	–	–	–	290
CN1C(=O)[C@@H](NC(=O)c2n[nH]c3c2CC(n2cccn2)CC3)COc2ccccc21 (mixture of isomers)	–	–	–	4100
C[C@@H]1CCc2[nH]nc(C(=O)N[C@H]3COc4ccccc4N(C)C3=O)c2C1	–	–	–	130
CN1C(=O)[C@@H](NC(=O)c2nnc[nH]2)COc2ccccc21	–	–	> 10000	> 20000
CN1C(=O)[C@@H](NC(=O)c2n[nH]c3c2CCCC3)COc2ccccc21	–	–	–	15000
CN1C(=O)[C@@H](NC(=O)c2n[nH]c3c2CC2CC2C3)COc2ccccc21 (mixture of isomers)	–	–	–	7000
CN1C(=O)[C@@H](NC(=O)c2n[nH]c3c2CC(c2ccccc2)CC3)COc2ccccc21 (mixture of isomers)	–	–	–	520
CN1C(=O)[C@@H](NC(=O)c2n[nH]c3c2C2CC2CC3)COc2ccccc21 (single isomer, unassigned; diastereomer 1)	–	–	–	6900
C[C@H]1CCc2[nH]nc(C(=O)N[C@H]3COc4ccccc4N(C)C3=O)c2C1	–	–	–	400

Source: ChEMBL document CHEMBL4665648, “Potent and selective inhibitors of receptor-interacting protein kinase 1 that lack an aromatic back pocket group” (Bioorg Med Chem Lett, 2019)
